Data: patent publication US20060276340A1, “HERBICIDE COMPOSITION COMPRISING PYRIBAMBENZ-PROPYL OR PYRIBAMBENZ-ISOPROPYL” (Zhejiang Chem-Tech Group Co., Ltd., priority 2003, published 2006)
Entries after “also recorded” stand apart in the source; their conditions may differ.

What was measured:
Assay type in all cases: in vivo
weeds in rape field = assay: weed control in rape field, descriptive statements
rape = assay: safety to crops
Protocol: The herbicidal activities of the compositions were evaluated by plant symptoms such as stunting, deformity, chlorosis, and whitening. 0 represents that the compositions have no herbicidal effect or have safety to crops. 100 represents that the weeds or crops were completely killed. [table]

Cerastium arvense [1] = assay: greenhouse pot test, post-emergence early stage treatment
Protocol: (§1) The test soil is a formulated sandy loam soil. 9.5 centimeter diameter pots are used for herbicidal activity test.
(§2) The pots for post-emergence treatment are placed into a greenhouse and incubated for 7 to 9 days, and then subjected to leave treatment by spraying. The preparation liquid for the treatment prepared by mixing individual single-herbicides was diluted with water to the desired dosage.
(§3) The treated pots stood for one day, then were placed in a greenhouse and watered regularly. The herbicidal activities of the compositions were evaluated by visual examination after incubating for 14 to 21 days.
(§4) The herbicidal activities of the compositions were evaluated by plant symptoms such as stunting, deformity, chlorosis, and whitening. 0 represents that the compositions have no herbicidal effect or have safety to crops. 100 represents that the weeds or crops were completely killed.

Galium aparine [2] = assay: as above
Protocol: as §1, §2, §3, §4

Alopercurus japonicus [3] = assay: as above; settings: ALOJA
Protocol: as §1, §2, §3, §4

Poa annua [4] = assay: as above
Protocol: as §1, §2, §3, §4

Beckmannia syzigachne [5] = assay: as above; settings: BECSY 2˜3 leaves
Protocol: as §1, §2, §3, §4

Alopecurus aequalis [6] = assay: greenhouse pot test, Tables 1-2
Protocol: as §1
(§5) The soil in the pot for the pre-emergence test was sprayed one day after planting. The preparation liquid for the treatment prepared by mixing individual single-herbicides was diluted with water to the desired dosage.
as §2, §3, §4

Digitrria sanguinalis = assay: greenhouse pot test, Tables 1-2; settings: DIGSA 3 leaves
Protocol: as §1, §5, §2, §3, §4

Poa annua [7] = assay: greenhouse pot test, Tables 1-2; settings: POAAN 3 leaves
Protocol: as §1, §5, §2, §3, §4

Beckmannia syzigachne [8] = assay: greenhouse pot test, Tables 1-2; settings: BECSY 2 leaves
Protocol: as §1, §5, §2, §3, §4

Polypogon fugax [9] = assay: greenhouse pot test, Tables 1-2; settings: POLFU 3-4 leaves
Protocol: as §1, §5, §2, §3, §4

Cerastium arvense [10] = assay: greenhouse pot test, pre-emergence treatment; settings: CERAR
Protocol: as §1, §5, §3, §4

Galium aparine [11] = assay: greenhouse pot test, pre-emergence treatment; settings: GALAP
Protocol: as §1, §5, §3, §4

Alopecurus aequalis [12] = assay: greenhouse pot test, pre-emergence treatment; settings: ALOAE
Protocol: as §1, §5, §3, §4

Polypogon fugax [13] = assay: greenhouse pot test, pre-emergence treatment; settings: POLFU
Protocol: as §1, §5, §3, §4

Veronica didyma = assay: greenhouse pot test, post-emergence treatment; settings: VERDI
Protocol: as §1, §2, §3, §4

Galium aparine [14] = assay: greenhouse pot test, post-emergence treatment; settings: GALAP
Protocol: as §1, §2, §3, §4

Alopercurus japonicus [15] = assay: greenhouse pot test, post-emergence treatment; settings: ALOJA
Protocol: as §1, §2, §3, §4

Poa annua [16] = assay: greenhouse pot test, post-emergence treatment; settings: POAAN
Protocol: as §1, §2, §3, §4

## CCCOC(=O)c1ccc(NCc2ccccc2Oc2nc(OC)cc(OC)n2)cc1 [Pyribambenz-propyl, propyl 4-({2-[(4,6-dimethoxypyrimidin-2-yl)oxy]benzyl}amino)benzoate]
Weeds in rape field; Alopecurus aequalis, Alopecurus japonicus, Stellaria aquatica, Stallaria media and Atellaria alsine
  weed control: high-effectively control; also recorded: effective weed control
Weeds in rape field; second important weeds in rape field: Poa annua, sclerochloa kengiana, Beckmannia syzigachne, Polypogon fugax, broadleaf Cardlamine hirsuta, Galium aparine, Lapsana apogonoides, Hemistepta lyrata
  effectiveness of control: moderate
rape; in vivo
  selectivity between rape and weeds: good selectivity
rape; rape / objective crops
  safety to crops: safety toward rape
Cerastium arvense [1]; CERAR 3˜4 leaves, 30 g/ha
  visual evaluation of weed effects: 40%
Cerastium arvense [1]; CERAR 3˜4 leaves, 45 g/ha
  visual evaluation of weed effects: 50%
Cerastium arvense [1]; CERAR, 30 g/ha
  visual evaluation of weed effects: 80%
Cerastium arvense [1]; CERAR, 45 g/ha
  visual evaluation of weed effects: 85%
Galium aparine [2]; GALAP 7˜8 leaves, 30 g/ha
  visual evaluation of weed effects: 0%
Galium aparine [2]; GALAP 7˜8 leaves, 45 g/ha
  visual evaluation of weed effects: 30%
Galium aparine [2]; GALAP, 30 g/ha
  visual evaluation of weed effects: 20%
Galium aparine [2]; GALAP, 45 g/ha
  visual evaluation of weed effects: 20%
Alopercurus japonicus [3]; 30 g/ha
  visual evaluation of weed effects: 90%
Alopercurus japonicus [3]; 45 g/ha
  visual evaluation of weed effects: 90%
Poa annua [4]; POAAN 2˜3 leaves, 30 g/ha
  visual evaluation of weed effects: 85%
Poa annua [4]; POAAN 2˜3 leaves, 45 g/ha
  visual evaluation of weed effects: 95%
Poa annua [4]; POAAN, 30 g/ha
  visual evaluation of weed effects: 95%
Poa annua [4]; POAAN, 45 g/ha
  visual evaluation of weed effects: 98%
Beckmannia syzigachne [5]; 30 g/ha
  visual evaluation of weed effects: 50%
Beckmannia syzigachne [5]; 45 g/ha
  visual evaluation of weed effects: 70%
Alopecurus aequalis [6]; ALOAE 0 leaf, 30 g/ha
  visual evaluation of weed effects: 90%
Alopecurus aequalis [6]; ALOAE 0 leaf, 45 g/ha
  visual evaluation of weed effects: 90%
Alopecurus aequalis [6]; ALOAE 3 leaves, 30 g/ha
  visual evaluation of weed effects: 100%
Alopecurus aequalis [6]; ALOAE 3 leaves, 45 g/ha
  visual evaluation of weed effects: 100%
Digitrria sanguinalis; 30 g/ha
  visual evaluation of weed effects: 60%
Digitrria sanguinalis; 45 g/ha
  visual evaluation of weed effects: 80%
Poa annua [7]; 30 g/ha
  visual evaluation of weed effects: 20%
Poa annua [7]; 45 g/ha
  visual evaluation of weed effects: 30%
Beckmannia syzigachne [8]; 30 g/ha
  visual evaluation of weed effects: 0%
Beckmannia syzigachne [8]; 45 g/ha
  visual evaluation of weed effects: 0%
Polypogon fugax [9]; 30 g/ha
  visual evaluation of weed effects: 70%
Polypogon fugax [9]; 45 g/ha
  visual evaluation of weed effects: 80%
Cerastium arvense [10]; 30 g/ha
  visual evaluation of weed effects: 70%
Cerastium arvense [10]; 45 g/ha
  visual evaluation of weed effects: 80%
Galium aparine [11]; 30 g/ha
  visual evaluation of weed effects: 0%
Galium aparine [11]; 45 g/ha
  visual evaluation of weed effects: 40%
Alopecurus aequalis [12]; 30 g/ha
  visual evaluation of weed effects: 95%
Alopecurus aequalis [12]; 45 g/ha
  visual evaluation of weed effects: 95%
Polypogon fugax [13]; 30 g/ha
  visual evaluation of weed effects: 60%
Polypogon fugax [13]; 45 g/ha
  visual evaluation of weed effects: 80%
Veronica didyma; 30 g/ha
  visual evaluation of weed effects: 20%
Veronica didyma; 45 g/ha
  visual evaluation of weed effects: 30%
Galium aparine [14]; 30 g/ha
  visual evaluation of weed effects: 20%
Galium aparine [14]; 45 g/ha
  visual evaluation of weed effects: 20%
Alopercurus japonicus [15]; 30 g/ha
  visual evaluation of weed effects: 85%
Alopercurus japonicus [15]; 45 g/ha
  visual evaluation of weed effects: 90%
Poa annua [16]; 30 g/ha
  visual evaluation of weed effects: 85%
Poa annua [16]; 45 g/ha
  visual evaluation of weed effects: 90%
